Measurements reported in patent US5607926A, “Cephalosporin antibiotics” (Microcide Pharmaceuticals, Inc., priority 1995, dated 1997).
≈ marks a conversion by molar mass, not a printed value. Like-named read-outs stand apart in the source and are kept apart here.

Legend:
[1] = system: E. faecalis ATCC 29212; assay: In vitro antibacterial evaluation, MIC by agar dilution, E. faecalis ATCC 29212; type: cell-based; conditions: E. faecalis ATCC 29212
In short: (§1)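 Agar dilution MIC (μg/mL) on Mueller-Hinton agar following NCCLS: twofold compound series from 128 μg/mL down to ≤0.25 μg/mL, each level in duplicate. Spots of about 10^4 cfu from log-phase cultures were incubated 16-20 h at 35-36 °C. MIC was the lowest concentration inhibiting growth.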

[2] = system: S. epidermidis ATCC 31432; assay: In vitro antibacterial evaluation, MIC by agar dilution, S. epidermidis ATCC 31432; type: cell-based
In short: as §1

[3] = system: S. aureus Col8A (Meth^S)(lac^-); assay: In vitro antibacterial evaluation, MIC by agar dilution, S. aureus Col8A; type: cell-based
In short: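 Agar dilution per NCCLS (1991): two-fold dilutions from 128 μg/mL down to ≤0.25 μg/mL in Mueller-Hinton agar, each level in duplicate. Spots of about 10^4 cfu of log-phase culture; 16-20 h at 35°-36° C. MIC in μg/ml is the lowest concentration inhibiting growth.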

[4] = system: S. aureus Col (Meth^R)(lac^-); assay: In vitro antibacterial evaluation, MIC by agar dilution, S. aureus Col; type: cell-based
Method: (§2) The compounds of the invention were evaluated against several β-lactamresistant bacteria strains by determining the minimum inhibitory concentration (MIC, μg/ml) of each compound with respect to each strain. The MIC, the lowest concentration of antibiotic which inhibits growth of the test organism, was determined by the agar dilution method.
(§3) To determine the MIC for bacterial isolates, the test compound was incorporated in a series of two-fold dilutions into liquified Mueller-Hinton agar. Upon solidification, a number of different bacterial strains were spot inoculated with a replicating device onto the agar surface. […] The procedures used in these studies have been standardized by the National Committee for Clinical Laboratory Standards (NCCLS), as per the NCCLS publication entitled METHODS FOR DILUTION ANTIMICROBIAL SUSCEPTIBILITY TESTS (1991), which is incorporated herein by reference.
(§4) Aliquots of antimicrobial agents were prepared in phosphate buffered saline (PBS) at pH 7.2. Tween 20 or DMSO was used as a solubilizing vehicle as needed. Standard methods of vortexing, sonicating and gentle heat were used to facilitate solubilizing the test agent. Typically, the concentration of the stock solution was 10× that of the highest drug concentration tested. A 1.28 mg/mL stock solution was used with a subsequent highest working concentration of 128 μg/mL. Serial two-fold dilutions were done through ≤0.25 μg/mL. Each drug level was tested in duplicate. Two-fold drug dilutions were done in sterile 50 mL tubes with a final drug volume of 5 mL. Upon the addition of 45 mL of molten agar, a 10-fold dilution resulted. Two, 25 mL. plates were then poured into 15×150 mm square Petri plates with grids and allowed to harden.
(§5) A control plate with a reference drug, either cefotaxime, vancomycin or imipenem, was used as the positive growth control. Stock concentrations of reference antibiotics were prepared and frozen at -80° C. Upon preparation, the control plates were sealed and stored in the refrigerator for up to 1 week prior to use; however, imipenem control plates had to be prepared just prior to use. All test plates were used within 24 hours of preparation.
(§6) Satisfactory results were obtained where the inoculum contained about 10^4 colony forming units (cfu) ±0.5 logs. Starting with pure cultures of the test isolates on agar plates, a few isolated colonies were transferred to a tube of nutrient broth and allowed to grow 4-6 hours at 35°-36° C. to reach log-phase growth. Dropwise addition of the broth culture to PBS was done to match a 0.5 McFarland turbidity standard equal to 10^8 cfu/mL. This was further diluted ten-fold in PBS to reach a working inoculum concentration of 10^7 cfu/mL. When 1 μL of the working inoculum was applied to the agar surface a concentration of about 10^4 cfu per spot was obtained.
(§7) Disposable sterile 1 μL loops were used to inoculate test plates, with each isolate in a designated grid on the agar plate. An alternate method of inoculation involved the use of a replica plater, a device with 48 steel pins allowing the simultaneous inoculation of multiple isolates. After the spots had dried, the plates were incubated at 35°-36° C. for 16-20 hours. Endpoints were assessed as the minimum inhibitory concentration (MIC) of antimicrobial agent.
The novel agents of this invention are notable for their enhanced activity against S. aureus Col and Enterococci (E. faecium and E. faecalis). […]

[5] = system: P. aeruginosa ATCC 27853; assay: In vitro antibacterial evaluation, MIC by agar dilution, P. aeruginosa ATCC 27853; type: cell-based
In short: as §1

[6] = system: S. aureus ATCC 29213; assay: In vitro antibacterial evaluation, MIC by agar dilution, S. aureus ATCC 29213; type: cell-based; conditions: Staphylococcus aureus, ATCC29213
In short: as §1

[7] = system: Enterococci (E. faecium and E. faecalis); assay: In vitro antibacterial evaluation, Enterococci (E. faecium and E. faecalis); type: cell-based
Method: as §2, §3
Aliquots of antimicrobial agents were prepared in phosphate buffered saline (PBS) at pH 7.2. Tween 20 or DMSO was used as a solubilizing vehicle as needed. Standard methods of vortexing, sonicating and gentle heat were used to facilitate solubilizing the test agent. […]
Disposable sterile 1 μL loops were used to inoculate test plates, with each isolate in a designated grid on the agar plate. […] Endpoints were assessed as the minimum inhibitory concentration (MIC) of antimicrobial agent. […]

[8] = system: E. coli ATCC 25922; assay: In vitro antibacterial evaluation, MIC by agar dilution, E. coli ATCC 25922; type: cell-based
In short: as §1

[9] = system: S. aureus ATCC 25923; assay: In vitro antibacterial evaluation, MIC by agar dilution, S. aureus ATCC 25923; type: cell-based
In short: as §1

[10] = system: X. maltophilia ATCC 13637; assay: In vitro antibacterial evaluation, MIC by agar dilution, X. maltophilia ATCC 13637; type: cell-based; conditions: Stenotrophomonas maltophilia, ATCC13637
Method: as §2, §3, §4, §5, §6, §7

[11] = system: S. haemolyticus (Meth^R); assay: In vitro antibacterial evaluation, MIC by agar dilution, S. haemolyticus; type: cell-based
In short: as §1

[12] = system: E. faecium ATCC 35667; assay: In vitro antibacterial evaluation, MIC by agar dilution, E. faecium ATCC 35667; type: cell-based
In short: as §1

[13] = system: methicillinsusceptible S. aureus strain ATCC 13709; assay: In vivo antibacterial evaluation, murine model for lethal bacteremic peritonitis; design: species or system S. aureus in female Swiss-Webster mice; conditions: Staphylococcus aureus, ATCC13709, sc, 72 h, two equal SC doses at challenge and 2 hours later, mice, probit, read-out: ED50
In short: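 Female Swiss-Webster mice received IP an LD100 bacterial titer in 7% hog gastric mucin, then two equal subcutaneous doses (at challenge and 2 h later) of two-fold increments of drug, range 0.01–512 mg/kg. Survival scored at 72 h; PD50 (total mg/kg) by probit, groups of 10.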

[14] = system: methicillinsusceptible S. aureus strain ATCC 13709; assay: Challenge strain MIC; type: cell-based; conditions: Staphylococcus aureus, ATCC13709, S. aureus ATCC 13709; read-out: Challenge str MIC
In short: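 MIC was found by agar dilution to NCCLS standards: two-fold compound dilutions from 128 μg/mL through ≤0.25 μg/mL in Mueller-Hinton agar, each level in duplicate. Log-phase inocula of about 10^4 cfu per spot were applied. Plates were incubated 16-20 h at 35°-36° C, and the MIC was the lowest concentration inhibiting growth.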

[15] = system: S. aureus 76 (Meth^R)(lac^+); assay: In vitro antibacterial evaluation, MIC by agar dilution, S. aureus 76; type: cell-based
In short: as §1

[16] = system: MRSA strains; conditions: background art; cited from earlier work
[17] = Enterococcus faecalis, ATCC29212, read-out: MIC
[18] = Staphylococcus epidermidis, ATCC31432, S. epidermidis ATCC 31432, read-out: MIC
[19] = Pseudomonas aeruginosa, ATCC27853, read-out: MIC
[20] = S. aureus ATCC 29213, read-out: MIC
[21] = Escherichia coli, ATCC25922, read-out: MIC
[22] = Staphylococcus aureus, ATCC25923, S. aureus ATCC 25923, read-out: MIC
[23] = Staphylococcus haemolyticus, read-out: MIC
[24] = Enterococcus faecium, ATCC35667, read-out: MIC
[25] = Staphylococcus epidermidis, ATCC31432
[26] = Staphylococcus aureus, read-out: MIC
[27] = Staphylococcus aureus, ATCC25923

Compound	MIC [1, 17] [µg/mL]	MIC [2, 18] [µg/mL]	MIC ([3]; Staphylococcus aureus) [µg/mL]	MIC [5, 19] [µg/mL]	MIC [8, 21] [µg/mL]	MIC [9, 22] [µg/mL]	MIC [10] [µg/mL]	MIC [11, 23] [µg/mL]	MIC [12, 24] [µg/mL]	MIC [15, 26] [µg/mL]	further results
O=C(Cc1ccccc1)N[C@@H]1C(=O)N2C(C(=O)O)=C(SCc3ccc(-c4ccccc4)cc3)CS[C@H]12 [Cmpd 12, (7R)-7-[(Phenylacetyl)amino]-3-(4-biphenylmethylthio)-3-cephem-4-carboxylic acid]	4 (≈ 7.74 µM)	< 0.06	< 0.06	> 32	> 32	< 0.06	> 32	–	–	–	activity against S. aureus Col ([4]; S. aureus Col): lacking activity against S. aureus Col; MIC [6, 20]: < 0.06 µg/mL; activity against enterococci [7]: potent activity against enterococci
CO/N=C(\C(=O)N[C@@H]1C(=O)N2C(C(=O)O)=C(COC(C)=O)CS[C@H]12)c1csc(N)n1 [Cefotaxime, (7R)-3-Acetoxymethyl-7-[(Z)-2-(aminothiazol-4-yl)-2-(methoxyimino)acetamido]-3-cephem-4-carboxylic acid, reference compound]	> 32	2 (≈ 4.39 µM)	2 (≈ 4.39 µM)	8 to 16 (≈ 17.6 to 35.1 µM)	< 1	< 1	> 32	> 32	> 32	–	MIC [6, 20]: 2 µg/mL (≈ 4.39 µM); ED50 [13]: 7.47 mg/kg; MIC [14]: 2 µg/mL (≈ 4.39 µM)
N=C(N)SCc1ccc(SC2=C(C(=O)O)N3C(=O)[C@@H](NC(=O)Cc4ccccc4)[C@H]3SC2)c(I)c1 [Cmpd 58, (7R)-7-[(Phenylacetyl)amino]-3-(4-isothiouroniummethyl-2-iodophenylthio)-3-cephem-4-carboxylic acid]	1 (≈ 1.56 µM)	–	< 0.25	> 32	32 (≈ 50 µM)	–	–	4 (≈ 6.24 µM)	0.5 (≈ 0.781 µM)	4 (≈ 6.24 µM)	MIC [2, 25]: < 0.25 µg/mL; MIC ([4]; Staphylococcus aureus): < 0.25 µg/mL; MIC [9, 27]: < 0.25 µg/mL
(7R)-7-[(Phenylacetyl)amino]-3-(2,3-dihydro-2,2-dimethylbenzofuran-7-yl)-3-cephem-4-carboxylic acid [Cmpd 55]	–	–	–	–	–	–	–	–	–	–	MIC [11]: 16 µg/mL; MIC [1]: 16 µg/mL; MIC ([2]; S. epidermidis ATCC 31432): < 0.25 µg/mL; MIC ([3]; S. aureus Col8A (Meth^S)(lac^-), lacks PBP2a): < 0.25 µg/mL; MIC ([4]; S. aureus Col (Meth^R)(lac^-), high-level PBP2a producer): 4 µg/mL; MIC [5]: > 32 µg/mL; MIC [12]: 8 µg/mL; MIC [8]: > 32 µg/mL; MIC [15]: 16 µg/mL; MIC ([9]; S. aureus ATCC 25923): < 0.25 µg/mL
O=C(Cc1ccccc1)N[C@@H]1C(=O)N2C(C(=O)O)=C(Sc3ccccc3I)CS[C@H]12 [Cmpd 6, (7R)-7-[(Phenylacetyl)amino]-3-(o-iodophenylthio)-3-cephem-4-carboxylic acid]	0.5 (≈ 0.905 µM)	–	< 0.015	> 32	> 32	–	> 32	4 (≈ 7.24 µM)	0.5 (≈ 0.905 µM)	1 (≈ 1.81 µM)	MIC [2, 25]: < 0.015 µg/mL; activity against S. aureus Col, S. aureus Col 8A and Enterococci ([4]; S. aureus Col): broad activity against both S. aureus Col and S. aureus Col 8A, as well as Enterococci; MIC [6]: < 0.015 µg/mL; MIC [9, 27]: < 0.015 µg/mL
O=C(Cc1ccccc1)N[C@@H]1C(=O)N2C(C(=O)O)=C(Sc3ccccc3-c3ccccc3)CS[C@H]12 [Cmpd 9, (7R)-7-((Phenylacetyl)amino]-3-(2-biphenylthio)-3-cephem-4-carboxylic acid]	4 (≈ 7.96 µM)	0.125 (≈ 0.249 µM)	0.25 (≈ 0.497 µM)	> 32	> 32	0.125 (≈ 0.249 µM)	> 32	0.125 (≈ 0.249 µM)	2 (≈ 3.98 µM)	8 (≈ 15.9 µM)	activity against S. aureus Col, S. aureus Col 8A and Enterococci ([4]; S. aureus Col): broad activity against both S. aureus Col and S. aureus Col 8A, as well as Enterococci; MIC [6]: 0.25 µg/mL (≈ 0.497 µM)
C[C@@H](O)[C@H]1C(=O)N2C(C(=O)O)=C(SCCN=CN)C[C@H]12 [imipenem]	–	–	–	–	–	–	–	–	–	–	activity against MRSA strains [16]: active against a few MRSA strains
